# Tests used:
# Assay in all cases: Kinase profiling in a biochemical assay panel (mobility shift assays and ELISA), %-inhibition at 1 μM; selectivity entropy
# [1] = target: panel of more than 300 wild-type and mutant kinases (313 kinase panel) (Homo sapiens, UniProt P49841)
# [2] = target: panel of more than 300 wild-type and mutant kinases (313 kinase panel) (Homo sapiens, UniProt Q15418)
# [3] = target: panel of more than 300 wild-type and mutant kinases (313 kinase panel) (Homo sapiens, UniProt P54646)
# [4] = target: T1, panel of more than 300 wild-type and mutant kinases (313 kinase panel) (Homo sapiens, UniProt P52333)
# T1 sequence (P52333 1-1124): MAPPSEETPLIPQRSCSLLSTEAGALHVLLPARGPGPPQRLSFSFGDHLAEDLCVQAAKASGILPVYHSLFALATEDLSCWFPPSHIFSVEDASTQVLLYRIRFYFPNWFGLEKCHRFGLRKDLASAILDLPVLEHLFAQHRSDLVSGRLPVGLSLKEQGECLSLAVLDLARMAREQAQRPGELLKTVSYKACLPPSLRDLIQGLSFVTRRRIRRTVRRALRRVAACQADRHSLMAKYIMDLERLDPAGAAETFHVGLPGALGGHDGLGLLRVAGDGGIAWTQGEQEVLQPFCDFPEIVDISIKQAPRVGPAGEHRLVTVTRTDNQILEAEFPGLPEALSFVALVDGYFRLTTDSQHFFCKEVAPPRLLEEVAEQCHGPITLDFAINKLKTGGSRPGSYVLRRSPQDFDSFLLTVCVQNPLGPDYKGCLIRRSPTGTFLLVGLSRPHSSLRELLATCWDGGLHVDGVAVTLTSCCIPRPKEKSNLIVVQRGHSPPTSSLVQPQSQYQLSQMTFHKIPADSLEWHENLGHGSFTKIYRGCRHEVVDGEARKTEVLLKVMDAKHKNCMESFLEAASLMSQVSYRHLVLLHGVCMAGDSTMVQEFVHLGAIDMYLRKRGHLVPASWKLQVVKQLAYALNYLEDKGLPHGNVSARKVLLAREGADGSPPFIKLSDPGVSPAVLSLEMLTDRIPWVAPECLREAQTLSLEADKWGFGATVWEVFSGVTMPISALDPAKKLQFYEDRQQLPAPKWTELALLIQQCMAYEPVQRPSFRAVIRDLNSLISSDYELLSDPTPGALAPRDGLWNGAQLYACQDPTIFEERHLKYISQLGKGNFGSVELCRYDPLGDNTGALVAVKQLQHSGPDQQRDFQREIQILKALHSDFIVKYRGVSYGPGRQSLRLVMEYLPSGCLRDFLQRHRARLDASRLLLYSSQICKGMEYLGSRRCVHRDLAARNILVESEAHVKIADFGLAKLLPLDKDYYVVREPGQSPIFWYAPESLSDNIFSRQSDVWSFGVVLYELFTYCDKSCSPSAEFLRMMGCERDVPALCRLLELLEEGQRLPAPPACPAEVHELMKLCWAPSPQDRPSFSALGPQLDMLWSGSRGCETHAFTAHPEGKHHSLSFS
# [5] = target: panel of more than 300 wild-type and mutant kinases (313 kinase panel) (Homo sapiens, UniProt P16234)
# panel of more than 300 wild-type and mutant kinases (313 kinase panel) (Homo sapiens, UniProt P16234), sequence (P16234 24-1089, change not shown): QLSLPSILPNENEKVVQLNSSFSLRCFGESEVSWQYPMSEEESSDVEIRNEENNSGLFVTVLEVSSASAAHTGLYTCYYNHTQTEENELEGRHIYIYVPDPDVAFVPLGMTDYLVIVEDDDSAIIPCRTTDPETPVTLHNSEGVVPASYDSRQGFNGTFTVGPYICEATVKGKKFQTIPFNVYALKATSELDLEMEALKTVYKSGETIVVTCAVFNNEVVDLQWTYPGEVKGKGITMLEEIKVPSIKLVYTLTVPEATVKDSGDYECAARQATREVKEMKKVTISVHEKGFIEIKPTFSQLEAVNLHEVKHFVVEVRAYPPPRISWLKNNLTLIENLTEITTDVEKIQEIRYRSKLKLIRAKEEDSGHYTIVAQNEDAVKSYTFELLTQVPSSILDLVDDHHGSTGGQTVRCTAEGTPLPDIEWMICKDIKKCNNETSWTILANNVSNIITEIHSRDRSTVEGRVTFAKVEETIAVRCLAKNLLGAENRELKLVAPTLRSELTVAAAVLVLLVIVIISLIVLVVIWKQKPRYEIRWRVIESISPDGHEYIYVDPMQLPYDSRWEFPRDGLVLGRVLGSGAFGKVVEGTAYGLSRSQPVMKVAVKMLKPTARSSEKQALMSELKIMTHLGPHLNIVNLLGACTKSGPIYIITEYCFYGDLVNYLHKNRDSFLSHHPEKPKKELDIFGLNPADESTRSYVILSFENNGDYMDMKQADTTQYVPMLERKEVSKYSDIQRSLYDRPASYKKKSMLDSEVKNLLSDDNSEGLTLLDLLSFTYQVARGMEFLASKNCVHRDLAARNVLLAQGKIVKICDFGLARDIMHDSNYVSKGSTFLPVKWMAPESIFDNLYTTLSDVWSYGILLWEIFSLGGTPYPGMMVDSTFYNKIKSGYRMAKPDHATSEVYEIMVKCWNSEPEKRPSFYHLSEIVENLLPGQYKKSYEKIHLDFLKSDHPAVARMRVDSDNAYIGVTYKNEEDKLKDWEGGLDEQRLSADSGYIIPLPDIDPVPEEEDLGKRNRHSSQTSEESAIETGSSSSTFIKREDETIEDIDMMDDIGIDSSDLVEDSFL
# [6] = target: panel of more than 300 wild-type and mutant kinases (313 kinase panel) (Homo sapiens, UniProt Q8IY84)
# [7] = target: T2, panel of more than 300 wild-type and mutant kinases (313 kinase panel) (Homo sapiens, UniProt Q08881)
# T2 sequence (Q08881 1-620): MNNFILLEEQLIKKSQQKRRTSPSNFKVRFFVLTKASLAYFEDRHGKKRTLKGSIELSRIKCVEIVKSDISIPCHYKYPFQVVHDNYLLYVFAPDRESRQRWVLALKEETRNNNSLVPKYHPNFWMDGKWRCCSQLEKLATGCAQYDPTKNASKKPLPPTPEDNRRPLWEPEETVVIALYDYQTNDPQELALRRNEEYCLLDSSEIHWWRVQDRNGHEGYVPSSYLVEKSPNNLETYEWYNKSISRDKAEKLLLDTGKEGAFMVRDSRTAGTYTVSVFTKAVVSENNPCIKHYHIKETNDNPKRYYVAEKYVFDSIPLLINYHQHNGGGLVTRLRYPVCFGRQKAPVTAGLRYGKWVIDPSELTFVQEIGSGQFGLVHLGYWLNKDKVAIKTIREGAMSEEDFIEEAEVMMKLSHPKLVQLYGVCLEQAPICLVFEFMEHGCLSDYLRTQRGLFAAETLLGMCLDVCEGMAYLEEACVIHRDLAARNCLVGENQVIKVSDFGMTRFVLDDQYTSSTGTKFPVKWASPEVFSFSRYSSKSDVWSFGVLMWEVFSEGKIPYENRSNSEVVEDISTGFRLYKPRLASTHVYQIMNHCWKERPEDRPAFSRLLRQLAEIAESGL
# [8] = target: panel of more than 300 wild-type and mutant kinases (313 kinase panel) (Homo sapiens, UniProt P07949, S891A)
# panel of more than 300 wild-type and mutant kinases (313 kinase panel) (Homo sapiens, UniProt P07949, S891A), sequence (P07949 29-1114 S891A): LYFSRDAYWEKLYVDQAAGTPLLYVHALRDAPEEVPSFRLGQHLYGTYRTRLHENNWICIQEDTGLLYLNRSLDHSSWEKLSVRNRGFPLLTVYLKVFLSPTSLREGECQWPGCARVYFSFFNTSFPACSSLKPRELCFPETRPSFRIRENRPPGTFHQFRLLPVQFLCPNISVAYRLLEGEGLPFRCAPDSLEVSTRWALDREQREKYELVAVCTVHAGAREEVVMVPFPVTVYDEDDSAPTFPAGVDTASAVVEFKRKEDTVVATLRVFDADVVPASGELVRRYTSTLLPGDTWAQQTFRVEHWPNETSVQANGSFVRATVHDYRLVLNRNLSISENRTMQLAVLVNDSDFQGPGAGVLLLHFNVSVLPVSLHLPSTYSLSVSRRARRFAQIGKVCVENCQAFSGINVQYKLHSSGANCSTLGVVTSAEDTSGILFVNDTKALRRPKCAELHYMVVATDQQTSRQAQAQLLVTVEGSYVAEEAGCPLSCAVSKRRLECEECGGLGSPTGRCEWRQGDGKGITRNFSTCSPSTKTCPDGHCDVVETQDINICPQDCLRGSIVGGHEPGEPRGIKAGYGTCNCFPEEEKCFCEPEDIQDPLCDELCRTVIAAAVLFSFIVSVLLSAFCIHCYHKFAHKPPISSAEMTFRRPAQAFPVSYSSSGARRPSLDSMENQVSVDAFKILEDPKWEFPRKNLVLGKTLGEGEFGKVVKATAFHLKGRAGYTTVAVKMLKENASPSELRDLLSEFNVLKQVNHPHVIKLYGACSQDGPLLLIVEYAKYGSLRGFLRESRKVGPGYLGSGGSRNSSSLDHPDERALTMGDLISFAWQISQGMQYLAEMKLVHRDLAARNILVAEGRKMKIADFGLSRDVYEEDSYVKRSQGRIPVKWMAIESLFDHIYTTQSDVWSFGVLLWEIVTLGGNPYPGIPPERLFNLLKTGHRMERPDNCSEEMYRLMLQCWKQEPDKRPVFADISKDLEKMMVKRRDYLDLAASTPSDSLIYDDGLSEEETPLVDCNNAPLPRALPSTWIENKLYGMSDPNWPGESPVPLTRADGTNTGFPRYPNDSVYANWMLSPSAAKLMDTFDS
# [9] = target: panel of more than 300 wild-type and mutant kinases (313 kinase panel) (Homo sapiens, UniProt P16591)
# panel of more than 300 wild-type and mutant kinases (313 kinase panel) (Homo sapiens, UniProt P16591), sequence (P16591 whole entry, change not shown): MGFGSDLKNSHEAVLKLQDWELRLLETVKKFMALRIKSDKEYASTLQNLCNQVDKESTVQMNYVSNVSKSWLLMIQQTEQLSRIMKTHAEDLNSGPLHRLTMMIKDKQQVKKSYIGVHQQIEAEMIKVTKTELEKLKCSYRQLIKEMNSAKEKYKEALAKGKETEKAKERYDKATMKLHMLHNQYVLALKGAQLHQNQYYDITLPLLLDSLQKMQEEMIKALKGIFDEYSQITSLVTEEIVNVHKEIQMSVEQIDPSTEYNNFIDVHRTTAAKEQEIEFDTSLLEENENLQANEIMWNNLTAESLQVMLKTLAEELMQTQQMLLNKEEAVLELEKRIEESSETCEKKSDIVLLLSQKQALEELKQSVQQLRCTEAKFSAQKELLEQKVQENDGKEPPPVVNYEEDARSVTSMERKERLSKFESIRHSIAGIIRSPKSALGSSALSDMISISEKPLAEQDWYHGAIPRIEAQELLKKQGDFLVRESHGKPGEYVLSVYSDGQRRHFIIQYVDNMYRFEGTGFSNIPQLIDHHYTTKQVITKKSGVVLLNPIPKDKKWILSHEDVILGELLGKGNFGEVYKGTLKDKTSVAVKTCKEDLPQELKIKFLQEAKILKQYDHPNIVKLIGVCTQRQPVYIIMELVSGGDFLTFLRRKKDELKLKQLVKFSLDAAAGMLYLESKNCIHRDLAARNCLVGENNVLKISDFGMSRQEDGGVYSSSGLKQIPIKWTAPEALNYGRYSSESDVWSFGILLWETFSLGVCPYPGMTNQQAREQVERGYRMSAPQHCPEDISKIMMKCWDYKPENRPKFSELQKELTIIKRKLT
# [10] = kinase AMPKα2/β1/γ1, 1 μM compound
SMILES,"%-inhibition of GSK3β ([1]; kinase GSK3β, compound at 1 μM) [%]","%-inhibition of RSK1 ([2]; kinase RSK1, 1 μM) [%]","%-inhibition, AMPKα2/β1/γ1 [3, 10] [%]","%-inhibition of JAK3 ([4]; kinase JAK3, compound at 1 μM) [%]","%-inhibition of PDGFRα ([5]; kinase PDGFRα, 1 μM) [%]","%-inhibition of MGC42105 ([6]; kinase MGC42105, 1 μM) [%]","%-inhibition of ITK ([7]; kinase ITK, compound at 1 μM) [%]","%-inhibition of RET(S891A) ([8]; kinase RET(S891A), 1 μM) [%]","%-inhibition of FER ([9]; kinase FER, compound at 1 μM) [%]",%-inhibition of RET(S891A) ([8]; 1 µM) [%],%-inhibition of GSK3β ([1]; 1 µM) [%],%-inhibition of RSK1 ([2]; 1 µM) [%],"%-inhibition, AMPKα2/β1/γ1 ([3]; 1 µM) [%]",%-inhibition of JAK3 ([4]; 1 µM) [%],%-inhibition of FER ([9]; 1 µM) [%],%-inhibition of PDGFRα ([5]; 1 µM) [%],%-inhibition of MGC42105 ([6]; 1 µM) [%],%-inhibition of ITK ([7]; 1 µM) [%]
C[C@@H](Oc1cc(-c2cnn(C3CCNCC3)c2)cnc1N)c1c(Cl)ccc(F)c1Cl [crizotinib],-2.11,-5,27,77,49,-6,63,,,,,,,,,,,
CC(C)(C)c1nc(-c2cccc(NS(=O)(=O)c3c(F)cccc3F)c2F)c(-c2ccnc(N)n2)s1 [dabrafenib],,,,22,63,-8.54,49,53,22,,,,,,,,,
COc1cc2c(Nc3ccc(Br)cc3F)ncnc2cc1OCC1CCN(C)CC1 [vandetanib],-3.71,,4.74,2.34,101,-17,20,,2.48,,,,,,,,,
O=S(=O)(c1cccc2cnccc12)N1CCCNCC1 [fasudil],-8,,5,4.46,16,3.31,-9,-1.38,-3,,,,,,,,,
C#Cc1cccc(Nc2ncnc3cc(OCCOC)c(OCCOC)cc23)c1 [erlotinib],,,,,,,,,,93,-4.63,9,4.43,55,4.42,52,4,6.51
COc1cc2nccc(Oc3ccc(NC(=O)C4(C(=O)Nc5ccc(F)cc5)CC4)cc3)c2cc1OC [cabozantinib],-3.51,-7.61,1.75,2.34,100,-8,16,,,,,,,,,,,
Cc1ccc(C(=O)Nc2ccc(CN3CCN(C)CC3)c(C(F)(F)F)c2)cc1C#Cc1cnc2cccnn12 [ponatinib],,32,89,98,103,-5.68,86,102,89,,,,,,,,,
CCCS(=O)(=O)Nc1ccc(F)c(C(=O)c2c[nH]c3ncc(-c4ccc(Cl)cc4)cc23)c1F [vemurafenib],8,-1.32,6.49,10,87,-8,3,60,11,,,,,,,,,
Cc1cn(-c2cc(NC(=O)c3ccc(C)c(Nc4nccc(-c5cccnc5)n4)c3)cc(C(F)(F)F)c2)cn1 [nilotinib],10,22,-0.54,2.15,,,-0.451,,-19,81,,,,,,103,-48,
CS(=O)(=O)CCNCc1ccc(-c2ccc3ncnc(Nc4ccc(OCc5cccc(F)c5)c(Cl)c4)c3c2)o1 [lapatinib],-10,2.59,,-6,,,-1.89,,3,0.932,,,-7.39,,,40,,
CNC(=O)c1cc(Oc2ccc(NC(=O)Nc3ccc(Cl)c(C(F)(F)F)c3)c(F)c2)ccn1 [regorafenib],11,0.165,16,31,102,-22,2.43,,-2,102,,,,,,,,
Cc1nc(Nc2ncc(C(=O)Nc3c(C)cccc3Cl)s2)cc(N2CCN(CCO)CC2)n1 [dasatinib],,,,,,-0.563,,,,,,,,,,,,
Cc1ccc(Nc2nccc(N(C)c3ccc4c(C)n(C)nc4c3)n2)cc1S(N)(=O)=O [pazopanib],,16,0.826,38,,0.318,28,100,81,,,,,,,,,
N#CC[C@H](C1CCCC1)n1cc(-c2ncnc3[nH]ccc23)cn1 [ruxolitinib],10,1.49,,,35,-13,30,,33,,,,7.49,,,,,
COc1cc(Nc2c(C#N)cnc3cc(OCCCN4CCN(C)CC4)c(OC)cc23)c(Cl)cc1Cl [bosutinib],,,10,67,77,32,13,90,89,,,,,,,,,

# Source: publication PMC3961306, “Comparison of the Cancer Gene Targeting and Biochemical Selectivities of All Targeted Kinase Inhibitors Approved for Clinical Use” (PLoS ONE, 2014)
